From US20250179559A1, “DUAL-LUCIFERASE REPORTER GENE DETECTION SYSTEM, FLUORESCENCE DETECTION KIT, AND METHOD FOR DETECTING LUMINESCENT SIGNAL OF LUCIFERASE” (BGI SHENZHEN, priority 2022, published 2025) come the findings set out here.

The subject of test [1] is wild-type Gaussia luciferase (WT-Gluc). Nature of the test: Luminescence intensity of substrates with wild-type Gaussia luciferase. The format is biochemical, Gaussia princeps. The settings on record: for Gluc fluorescence intensity: luciferase 1 μg/mL (10 μL), substrate 10 μM (90 μL), microplate reader; for Gluc relative intensity: percentage relative to wild-type Pleuromamma xiphias luciferase with compound N0, substrate 10 μM. Here is the method: (§1) [drawing 6] • (3) According to the conventional methods, such as the method disclosed in PCT/CN2017/082180, an expression vector (plasmid) containing the wild-type Gaussia luciferase gene and the wild-type Pleuromamma xiphias luciferase gene was constructed. The plasmid was transformed into Escherichia coli OrigamiB (DE3), which was coated on a plate, and a single colony was picked from the plate, cultured overnight at 37° C., diluted at a ratio of 1:100 on the next day, transferred to 3 mL of fresh LB medium containing ampicillin resistance (100 μg/mL), cultured with shaking at 37° C. and 200 rpm for 4 hours, and cooled on ice for 1 hour. The inducer IPTG was added at a final concentration of 1 mM and the induction was preformed overnight at 16° C. On the next day, the bacteria were collected by centrifugation, resuspended with 500 μL lysate (50 mM Tris-HCl pH 8.0, 500 mM NaCl, 0.2% lysozyme, PMSF), lysed for 20 minutes at room temperature, frozen with liquid nitrogen and thawed for 3 times, and centrifuged for 30 minutes at 18,000 g. The supernatant was taken, which was purified by using a centrifugal Ni column. The protein eluted by Ni column was dialyzed with dialysis buffer (25 mM Tris, pH 8.0, 250 mM NaCl) at 4° C. overnight. The concentration of luciferase was accurately determined by using a BCA quantitative kit (Thermoscientific™ Pierce™ BCA protein assay kit). The two luciferases were diluted to a concentration of 1 μg/mL with a diluent (50 mM Tris-HCl pH 8.0, 100 mM NaCl, 0.1% (v/v) Tween-20), and 10 μL of each luciferase was taken and added to a black 96-well plate. The substrate was diluted to 10 μM with the same diluent, 90 μL of the substrate was taken add into the 96-well plate containing the above luciferases (90 μL/well), and the luminescence intensity was read by using a light-emitting module of a microplate reader. The test data of the Gaussia luciferase and the Pleuromamma xiphias luciferase on different substrates were shown in Table 1, in which the relative intensity is a percentage relative to the activity of wild-type Pleuromamma xiphias luciferase and compound N0. […] That is, in this dual-luciferase reporter gene detection system, the optimal luminescent combination with high fluorescence brightness and low cross-interference obtained after screening is using f-CTZ to detect the Gaussia luciferase, and using N0 to detect the Pleuromamma xiphias luciferase.

Test [2] deals with wild-type Pleuromamma xiphias luciferase (WT-Pxluc). The test is described as follows: Luminescence intensity of substrates with wild-type Pleuromamma xiphias luciferase. The format is biochemical. Conditions: for Pxluc fluorescence intensity: luciferase 1 μg/mL (10 μL), substrate 10 μM (90 μL), microplate reader; for Pxluc relative intensity: percentage relative to wild-type Pleuromamma xiphias luciferase with compound N0, substrate 10 μM. The method, then: as §1

Test [3] deals with Gaussia luciferase mutant G2-F11. Nature of the test: Luminescence intensity of substrates with Gaussia luciferase mutant G2-F11. The format is biochemical, Gaussia princeps. Conditions: mutant G2-F11, among tested substrates. The method, then:
(§2) The two luciferases were diluted to a concentration of 1 μg/mL with a diluent (50 mM Tris-HCl pH 8.0, 100 mM NaCl, 0.1% (v/v) Tween-20), and 10 μL of each luciferase was taken and added to a black 96-well plate. The substrate was diluted to 10 μM with the same diluent, 90 μL of the substrate was taken add into the 96-well plate containing the above luciferases (90 μL/well), and the luminescence intensity was read by using a light-emitting module of a microplate reader.
(§3) According to the method as described in Example 1, an expression vector containing the gene of the Gaussia luciferase mutant and the gene of the Pleuromamma xiphias luciferase mutant was constructed, a recombinant strain was constructed, the mutant-type luciferases were expressed, and the luminous intensity of substrates and luciferases was detected.

Test [4] deals with Gaussia luciferase mutant G2-F8. Nature of the test: Luminescence intensity of substrates with Gaussia luciferase mutant G2-F8. The format is biochemical, Gaussia princeps. The settings on record: mutant G2-F8, among tested substrates. The method, then: as §2, §3
The subject of test [5] is Gaussia luciferase mutant E1-A3. Nature of the test: Luminescence intensity of substrates with Gaussia luciferase mutant E1-A3. The format is biochemical, Gaussia princeps. The settings on record: mutant E1-A3, among tested substrates. The method, then: as §2, §3
Test [6] concerns Pleuromamma xiphias luciferase mutant P26-95. Nature of the test: Luminescence intensity of substrates with Pleuromamma xiphias luciferase mutant P26-95. Conditions: mutant P26-95, among tested substrates. The format is biochemical. Here is the method: as §2
Mutant-Type Pleuromamma xiphias Luciferase P26-95: • d) P26-95: based on SEQ ID NO: 3, the following sites were mutated: G83A, and G84P.
as §3

Turning to `CN(C)c1ccc(-c2cn3c(=O)c(Cc4ccc(F)cc4)nc-3c(Cc3ccccc3)[nH]2)cc1` [Substrate N4], in test [1], the Gluc fluorescence intensity was determined as 17 and the Gluc relative intensity was found to be 0.0%. For the same molecule, in test [2], the Pxluc fluorescence intensity was 4137 and the Pxluc relative intensity was 2.6%.

With `CN(C)c1ccc(-c2cn3c(=O)c(Cc4ccc(O)cc4)nc-3c(Cc3ccccc3)[nH]2)cc1` [Substrate N3], in test [1], the Gluc fluorescence intensity was found to be 263 and the Gluc relative intensity is 0.2%. Besides, in test [2], the Pxluc fluorescence intensity stood at 1520 and the Pxluc relative intensity was 0.9%.

Take `O=c1c(Cc2ccc(F)cc2)nc2c(Cc3ccccc3)[nH]c(-c3ccc(O)cc3)cn1-2` [f-CTZ]: the “fluorescence intensity compared among substrates (in words)” value in test [3] is “highest fluorescence intensity”; in test [1] (wild-type Gaussia luciferase, among tested substrates) it was “highest fluorescence intensity”; in test [4] it was “highest fluorescence intensity”; in test [5], “highest fluorescence intensity”. Moreover, the Gluc fluorescence intensity in test [1] was 10186.5. For the same molecule, the Gluc relative intensity in test [1] is on record as 6.4%. The Pxluc fluorescence intensity in test [2] is given as 69138. Moreover, the Pxluc relative intensity in test [2] stood at 43.2%.

On to `O=c1c(Cc2ccc(O)cc2)nc2c(Cc3ccccc3)[nH]c(Cc3ccccc3)cn1-2` [Substrate N1], for which, in test [1], the Gluc fluorescence intensity is reported as 0 and the Gluc relative intensity was determined as 0.0%. For the same molecule, in test [2], the Pxluc fluorescence intensity came out at 1173 and the Pxluc relative intensity was found to be 0.7%.

As for `O=c1c(Cc2ccc(O)cc2)nc2c(Cc3ccccc3)[nH]c(-c3cccc(O)c3)cn1-2` [Substrate N0], the “fluorescence intensity compared among substrates (in words)” value in test [6] is given as “highest fluorescence intensity”. For the same molecule, in test [1], the Gluc fluorescence intensity is given as 5338 and the Gluc relative intensity was found to be 3.3%. In test [2], the Pxluc fluorescence intensity was found to be 160037 and the Pxluc relative intensity is reported as 100%. The “fluorescence intensity compared among substrates (in words)” value in test [2] (wild-type Pleuromamma xiphias luciferase, among tested substrates) is given as “highest fluorescence intensity”.

For `O=c1c(Cc2ccc(F)cc2)nc2c(Cc3ccccc3)[nH]c(Cc3ccccc3)cn1-2` [Substrate N2], in test [1], the Gluc fluorescence intensity was determined as 0 and the Gluc relative intensity came to 0.0%. For the same molecule, in test [2], the Pxluc fluorescence intensity was found to be 3026 and the Pxluc relative intensity was 1.9%.

For the molecule `O=c1c(Cc2ccc(O)cc2)nc2c(Cc3ccccc3)[nH]c(/C=C/c3ccccc3)cn1-2` [Substrate N7], in test [1], the Gluc fluorescence intensity was determined as 135 and the Gluc relative intensity turned out to be 0.1%. For the same molecule, in test [2], the Pxluc fluorescence intensity amounted to 4430 and the Pxluc relative intensity stood at 2.8%.

For the molecule `Nc1ccc(-c2cn3c(=O)c(Cc4ccc(F)cc4)nc-3c(Cc3ccccc3)[nH]2)cc1` [Substrate N6], in test [1], the Gluc fluorescence intensity turned out to be 15 and the Gluc relative intensity was determined as 0.0%. Further, in test [2], the Pxluc fluorescence intensity is listed as 3464 and the Pxluc relative intensity stood at 2.2%.

In the case of `Nc1ccc(-c2cn3c(=O)c(Cc4ccc(O)cc4)nc-3c(Cc3ccccc3)[nH]2)cc1` [Substrate N5], in test [1], the Gluc fluorescence intensity is listed as 457 and the Gluc relative intensity worked out at 0.3%. Besides, in test [2], the Pxluc fluorescence intensity is on record as 4430 and the Pxluc relative intensity came out at 2.8%.

Consider `O=c1c(Cc2ccc(F)cc2)nc2c(Cc3ccccc3)[nH]c(/C=C/c3ccccc3)cn1-2` [Substrate N8], for which, in test [1], the Gluc fluorescence intensity stood at 12 and the Gluc relative intensity is 0.0%. In addition, in test [2], the Pxluc fluorescence intensity is 1426 and the Pxluc relative intensity is reported as 0.9%.
